Assay results published in patent US20250289813A1, “CDK INHIBITORS, PHARMACEUTICAL COMPOSITIONS, AND THERAPEUTIC APPLICATIONS” (ONQUALITY PHARMACEUTICALS CHINA LTD., priority 2022, published 2025).

Assays:
[1] = target: CDK4/cyclin D1 (Homo sapiens (Human), UniProt P11802); assay: CDK4 Caliper Mobility Shift assay; type: biochemical
Description: (§1) A Caliper Mobility Shift assay was used to determine the inhibitory activities of a compound against CDK4/cyclin D1 and CDK6/cyclin D1 in their respective kinase buffers (CDK4: 20 mM HEPES, pH 7.5, and 0.01% Triton X-100; CDK6: 50 mM HEPES, pH 7.5, and 0.0015% BRIJ-35). The CDK4/cyclin D1 and CDK6/cyclin D1 were obtained from PROQINASE and CARNA, respectively. A FAM-labeled peptide was obtained from GL.
(§2) The compound at predetermined concentrations was pre-incubated with CDK4/cyclin D1 or CDK6/cyclin D1 in a 384-well microplate at room temperature for 10 min. The FAM-labeled peptide and ATP were subsequently added to initiate the kinase reactions. The final enzyme concentrations were 15 nM for CDK4 and 7.5 nM for CDK6. The final ATP concentrations were […] for CDK4 and […] for CDK6. The microplate was allowed to incubate at 28° C. The kinase reactions were stopped by adding a stop buffer (100 mM HEPES, pH 7.5, 0.012% BRIJ-35, 0.2% Coating Reagent 3 (Caliper Life Sciences), and […]). Conversion data were recorded and utilized to calculate the percent inhibition values for each compound and an IC50 value was then determined. The results are summarized in Table 1, where the symbol “***” represents a value no greater than 200 nM, the symbol “**” represents a value greater than 200 nM but no greater than 500 nM, and the symbol “*” represents a value greater than 500 nM.

[2] = target: CDK6/cyclin D1 (Homo sapiens (Human), UniProt Q00534); assay: CDK6 Caliper Mobility Shift assay; type: biochemical
Sequence of CDK6/cyclin D1 (Q00534 whole entry): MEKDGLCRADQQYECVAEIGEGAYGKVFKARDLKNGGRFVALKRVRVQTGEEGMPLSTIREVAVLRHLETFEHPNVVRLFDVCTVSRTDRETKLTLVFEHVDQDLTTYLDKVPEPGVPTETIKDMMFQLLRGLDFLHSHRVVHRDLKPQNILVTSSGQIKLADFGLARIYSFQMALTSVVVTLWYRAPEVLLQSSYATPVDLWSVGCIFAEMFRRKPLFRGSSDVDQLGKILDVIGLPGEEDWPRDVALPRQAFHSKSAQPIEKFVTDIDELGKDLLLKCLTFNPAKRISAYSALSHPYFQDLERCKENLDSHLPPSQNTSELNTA
Sequence of CDK6/cyclin D1 (P24385 whole entry partner): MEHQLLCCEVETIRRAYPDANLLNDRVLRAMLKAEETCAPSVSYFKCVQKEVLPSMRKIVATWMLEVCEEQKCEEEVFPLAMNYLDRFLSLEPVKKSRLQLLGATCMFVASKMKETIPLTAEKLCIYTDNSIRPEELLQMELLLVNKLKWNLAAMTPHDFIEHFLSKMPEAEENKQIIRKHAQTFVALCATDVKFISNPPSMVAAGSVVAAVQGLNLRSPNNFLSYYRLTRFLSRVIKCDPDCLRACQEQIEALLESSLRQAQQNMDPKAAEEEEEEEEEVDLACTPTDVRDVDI
Description: as §1, §2

[3] = test system: MCF-7 human breast cancer cells; assay: CELLTITER-GLO luminescent cell viability assay; type: cell-based; conditions: MCF7, 192 h, MCF-7 cells, 8 days, read-out: EC50 (Effect on Cell Viability)
Description: A CELLTITER-GLO luminescent cell viability assay was carried out using MCF-7 human breast cancer cells under the normal growth condition. The MCF-7 human breast cancer cells were grown at 37° C. in a 5% CO2 humidified incubator in EMEM, supplemented 10% FBS, 0.01 mg/mL bovine insulin. The cells were seeded at a 3,000 cells/well in a 96-well tissue culture plate. The cells were allowed to adhere overnight in the incubator. A compound (5 μL) in a medium at a predetermined concentration. After the cells was incubated at 37° C. for 8 days, a CELLTITER-GLO detection solution (100 μL) was added. The cells were mixed on an orbital shaker for 5 min and then incubated for additional 10 min. The plate was read with an ENVISION reader. The results are summarized in Table 2, where the symbol “+++” represents a value no greater than 1 μM, the symbol “++” represents a value greater than 1 μM but no greater than 10 μM, and the symbol “+” represents a value greater than 10 μM.

[4] = test system: BALB/c mice; assay: 5-FU-induced diarrhea mouse model; type: in vivo; conditions: 8 h before and 4 h after 5-FU (175 mg/kg), day 7
Description: A compound was evaluated in a 5-FU-induced diarrhea mouse model for its protective effect on the cytotoxicity induced by the chemotherapy drug 5-FU. On day 0, BALB/c mice (20-25 g, 7-8 weeks of age) were randomly divided into 3 groups (vehicle, 5-FU, and compound treatment) with 10 mice in each group. In the vehicle group, the mice were administered orally with the same medium in the same amount as used in the treatment group for the compound and then injected with the same medium in the same amount as used in the 5-FU group. In the 5-FU group, the mice were administered orally with the same medium in the same amount as used in the treatment group for the compound and then injected with 5-FU (175 mg/kg). In the treatment group, the mice were administrated orally with the compound and then injected with 5-FU (175 mg/kg). The compound was formulated with a 0.5% CMC solution.
On day 7, the diarrhea grade of each mouse was determined according to the method described in Kurita et al., Cancer Chemother. Pharmacol. 2000, 46, 211-20, the disclosure of which is incorporated herein by reference in its entirety. Diarrhea remission rates were calculated using the formula of Diarrhea remission rate (%)=(diarrhea grade in 5-FU group—diarrhea grade in treatment group)/diarrhea grade in 5-FU group×100%.

[5] = test system: COLO205 human colon cancer cells; assay: CASPASE-GLO 3/7 apoptosis assay (protection against chemotherapy drug induced cytotoxicity); type: cell-based
Description: The CASPASE-GLO 3/7 apoptosis assay was used to evaluate the protective effect of a compound on the cytotoxicity induced by a chemotherapy drug. The apoptosis assay was carried out using COLO205 human colon cancer cells. The cells were grown at 37° C. in a 5% CO2 humidified incubator in PRIM1640 supplemented with 10% FBS and 0.01 mg/mL bovine insulin. The cells were seeded at 4,000 cells/well in a 96-well plate. After incubated overnight, the cells were pretreated with a compound at predetermined concentrations or a vehicle for 16 h, followed by addition of a chemotherapy drug. After incubated for another 48 h, the CASPASE-GLO 3/7 reagent (100 μL/well) was added. The cells were mixed on an orbital shaker for 10 min and incubated at room temperature for 2 h. The 96-well plate was read with an ENVISION reader.

Sequence of CDK4/cyclin D1 (P11802 whole entry): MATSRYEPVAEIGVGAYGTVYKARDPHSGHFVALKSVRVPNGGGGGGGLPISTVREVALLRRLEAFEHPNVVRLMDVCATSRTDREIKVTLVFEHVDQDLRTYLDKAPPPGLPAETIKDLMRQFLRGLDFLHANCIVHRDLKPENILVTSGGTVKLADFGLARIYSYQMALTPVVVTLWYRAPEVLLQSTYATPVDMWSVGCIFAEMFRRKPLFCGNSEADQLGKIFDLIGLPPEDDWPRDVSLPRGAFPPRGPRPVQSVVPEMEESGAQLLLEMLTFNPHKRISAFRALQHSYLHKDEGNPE
Sequence of CDK4/cyclin D1 (P24385 whole entry partner): as the sequence (P24385 whole entry partner) above

| Compound | IC50 [1] [µM] | IC50 [2] [µM] | EC50 [3] [µM] | also measured |
| --- | --- | --- | --- | --- |
| CC(=O)c1c(C)c2cnc(Nc3ccc(N4CCN(S(=O)(=O)N5CC(CO)OC5=O)CC4)cn3)nc2n(C2CCCC2)c1=O (stereo not shown) [Compound A12, 3-((4-(6-((6-Acetyl-8-cyclopentyl-5-methyl-7-oxo-7,8-dihydropyrido[2,3-d]-pyrimidin-2-yl)amino)pyridin-3-yl)piperazin-1-yl)sulfonyl)-5-(hydroxymethyl)oxazolidin-2-one] | ≤ 0.2 | ≤ 0.2 | 1 to 10 | Remission Rate (diarrhea remission rate) ([4]; 10 mg/kg oral): 50%; Remission Rate (diarrhea remission rate) ([4]; 25 mg/kg oral): 90% |
| CC(=O)c1c(C)c2cnc(Nc3ccc(N4CCN(S(=O)(=O)NC(=O)CN)CC4)cn3)nc2n(C2CCCC2)c1=O [Compound A29, N-((4-(6-((6-Acetyl-8-cyclopentyl-5-methyl-7-oxo-7,8-dihydropyrido[2,3-d]-pyrimidin-2-yl)amino)pyridin-3-yl)piperazin-1-yl)sulfonyl)-2-aminoacetamide] | ≤ 0.2 | ≤ 0.2 | ≤ 1 | RPR (relative protection rate) ([5]; compound 1 μM, 5-Fu (10 μM)): 89%; RPR (relative protection rate) ([5]; compound 10 μM, 5-Fu (10 μM)): 78% |
| CC(=O)c1c(C)c2cnc(Nc3ccc(N4CCN(S(=O)(=O)NC(=O)C5CCCO5)CC4)cn3)nc2n(C2CCCC2)c1=O (stereo not shown) [Compound A39, N-((4-(6-((6-Acetyl-8-cyclopentyl-5-methyl-7-oxo-7,8-dihydropyrido[2,3-d]-pyrimidin-2-yl)amino)pyridin-3-yl)piperazin-1-yl)sulfonyl)tetrahydrofuran-2-carboxamide] | ≤ 0.2 | 0.2 to 0.5 | 1 to 10 | RPR (relative protection rate) ([5]; compound 1 μM, Irinotecan (20 μM)): 79%; RPR (relative protection rate) ([5]; compound 10 μM, Irinotecan (20 μM)): 86% |
| COCCNS(=O)(=O)N1CCN(c2ccc(Nc3ncc4c(C)c(C(C)=O)c(=O)n(C5CCCC5)c4n3)nc2)CC1 [Compound A43, 4-(6-((6-Acetyl-8-cyclopentyl-5-methyl-7-oxo-7,8-dihydropyrido[2,3-d]-pyrimidin-2-yl)amino)pyridin-3-yl)-N-(2-methoxyethyl)piperazine-1-sulfonamide] | ≤ 0.2 | ≤ 0.2 | 1 to 10 |  |
| CC(=O)c1c(C)c2cnc(Nc3ccc(N4CCN(S(=O)(=O)NCC(=O)O)CC4)cn3)nc2n(C2CCCC2)c1=O [Compound A44, ((4-(6-((6-Acetyl-8-cyclopentyl-5-methyl-7-oxo-7,8-dihydropyrido[2,3-d]-pyrimidin-2-yl)amino)pyridin-3-yl)piperazin-1-yl)sulfonyl)glycine] | ≤ 0.2 | ≤ 0.2 | 1 to 10 | RPR (relative protection rate) ([5]; compound 5 μM, 5-Fu (10 μM)): 90%; RPR (relative protection rate) ([5]; compound 20 μM, 5-Fu (10 μM)): 65% |
| CC(=O)c1c(C)c2cnc(Nc3ccc(N4CCN(S(=O)(=O)N[C@H](C(=O)O)C(C)C)CC4)cn3)nc2n(C2CCCC2)c1=O [Compound A45, ((4-(6-((6-Acetyl-8-cyclopentyl-5-methyl-7-oxo-7,8-dihydropyrido[2,3-d]-pyrimidin-2-yl)amino)pyridin-3-yl)piperazin-1-yl)sulfonyl)-L-valine] | ≤ 0.2 | ≤ 0.2 | 1 to 10 |  |
| CCNS(=O)(=O)N1CCN(c2ccc(Nc3ncc4c(C)c(C(C)=O)c(=O)n(C5CCCC5)c4n3)nc2)CC1 [Compound A47, 4-(6-((6-Acetyl-8-cyclopentyl-5-methyl-7-oxo-7,8-dihydropyrido[2,3-d]-pyrimidin-2-yl)amino)pyridin-3-yl)-N-ethylpiperazine-1-sulfonamide] | ≤ 0.2 | ≤ 0.2 | 1 to 10 |  |
| CC(=O)c1c(C)c2cnc(Nc3ccc(N4CCN(S(=O)(=O)NC(C)C)CC4)cn3)nc2n(C2CCCC2)c1=O [Compound A48, 4-(6-((6-Acetyl-8-cyclopentyl-5-methyl-7-oxo-7,8-dihydropyrido[2,3-d]-pyrimidin-2-yl)amino)pyridin-3-yl)-N-isopropylpiperazine-1-sulfonamide] | ≤ 0.2 | ≤ 0.2 | 1 to 10 |  |
| CCCNS(=O)(=O)N1CCN(c2ccc(Nc3ncc4c(C)c(C(C)=O)c(=O)n(C5CCCC5)c4n3)nc2)CC1 [Compound A49, 4-(6-((6-Acetyl-8-cyclopentyl-5-methyl-7-oxo-7,8-dihydropyrido[2,3-d]-pyrimidin-2-yl)amino)pyridin-3-yl)-N-propylpiperazine-1-sulfonamide] | 0.2 to 0.5 | 0.2 to 0.5 | > 10 |  |
| CC(=O)c1c(C)c2cnc(Nc3ccc(N4CCN(S(=O)(=O)N5CCOCC5)CC4)cn3)nc2n(C2CCCC2)c1=O [Compound A51, 6-Acetyl-8-cyclopentyl-5-methyl-2-((5-(4-(morpholinosulfonyl)piperazin-1-yl)-pyridin-2-yl)amino)pyrido[2,3-d]pyrimidin-7(8H)-one] | ≤ 0.2 | ≤ 0.2 | 1 to 10 |  |
| CC(=O)c1c(C)c2cnc(Nc3ccc(N4CCN(S(=O)(=O)N5CC(O)C5)CC4)cn3)nc2n(C2CCCC2)c1=O [Compound A52, 6-Acetyl-8-cyclopentyl-2-((5-(4-((3-hydroxyazetidin-1-yl)sulfonyl)piperazin-1-yl)pyridin-2-yl)amino)-5-methylpyrido[2,3-d]pyrimidin-7(8H)-one] | ≤ 0.2 | ≤ 0.2 | 1 to 10 |  |
| CC(=O)c1c(C)c2cnc(Nc3ccc(N4CCN(S(=O)(=O)NC(=O)OCCNC(=O)[C@H](N)C(C)C)C[C@@H]4C)cn3)nc2n(C2CCCC2)c1=O [Compound A55, 2-((R)-2-Amino-3-methylbutanamido)ethyl (((S)-4-(6-((6-acetyl-8-cyclopentyl-5-methyl-7-oxo-7,8-dihydropyrido[2,3-d]pyrimidin-2-yl)amino)pyridin-3-yl)-3-methylpiperazin-1-yl)sulfonyl)carbamate] | ≤ 0.2 | ≤ 0.2 | 1 to 10 | RPR (relative protection rate) ([5]; compound 0.1 μM, 5-Fu (10 μM)): 38%; RPR (relative protection rate) ([5]; compound 10 μM, 5-Fu (10 μM)): 88% |
| CC(=O)c1c(C)c2cnc(Nc3ccc(N4CCN(S(=O)(=O)OCOC(=O)c5ccccc5)CC4)cn3)nc2n(C2CCCC2)c1=O [Compound B3, (((4-(6-((6-Acetyl-8-cyclopentyl-5-methyl-7-oxo-7,8-dihydropyrido[2,3-d]-pyrimidin-2-yl)amino)pyridin-3-yl)piperazin-1-yl)sulfonyl)oxy)methyl benzoate] | ≤ 0.2 | ≤ 0.2 | 1 to 10 |  |
